We go through 31 compounds from patent publication US9434695B2, “Nitrogenous heterocyclic derivatives and their application in drugs” (SUNSHINE LAKE PHARMA CO., LTD., priority 2012, dated 2016).

As a reminder, the IC50 is the point on the concentration scale where inhibition reaches its midpoint.

The subject of this assay is BHK-21 cells. Put plainly: inhibition of BHK-21 cell proliferation (CCK-8, optical density at 450 nm). Particulars: for IC50: Mesocricetus auratus, inhibition ratio of cell proliferation, 48 hours after dosing, CCK-8; for The ratio with PFD (multiple): ratio of Pirfenidone IC50 from the compound IC50, the bigger the multiple, the better the vitro inhibitory activity, 48 hours. The format is cell-based. As to the method: Taking BHK-21 cells which in exponential growth phase, collecting and counting the cells which had digestive transfer culture after fusion growth 85-95%, adjusting the cell density to 2×10^4 cells per milliliter, seeding the cells into 96-well plates, 100 μl/well, the cells were incubated in a 5% CO2 incubator at 37° C.
The upper clear liquid of the 96-well plates was removed after the cells adhering to the wall 24 hours. The above compounds were confected into solutions of different concentration and the solutions were added to the wells, 100 μl/well. Each concentration solution in 3 replicates, the cells were subcultured 48 hours after dosing.
3. Testing the Optical Density
10 μl of CCK-8 solution was added to each well 48 hours after dosing, and incubated for 2 hours. The optical density (A) of each well was determined by a microplate reader at 450 nm wavelength. Calculating the inhibition ratio of cell proliferation of each compound is based on A and the inhibition ratio of cell proliferation (inhibition ratio, IR)=(1−value of experimental group (Ai)/value of control group (Ao))×100% and the IC50 of each compound at 48 hours was calculated by data processing software.

Each structure is given as a SMILES string.

In the case of `Cc1cc(=O)n(-c2ccc(N3CCN(C)CC3)c(F)c2)c(COc2cccc(F)c2)n1` [Example 55, 3-(3-fluoro-4-(4-methylpiperazin-1-yl)phenyl)-2-((3-fluorophenoxy)methyl)-6-methylpyrimidin-4(3H)-one], the half-maximal inhibitory concentration (IC50) was determined as 50 µM and the “The ratio with PFD (multiple)” value was found to be 46.92 multiple.

In the case of `CCCCN(CCCC)c1ccc(-n2c(C)nc(C)cc2=O)cc1F` [Example 22, 3-(4-(di-n-butylamino)-3-fluorophenyl)-2,6-dimethylpyrimidin-4(3H)-one], the IC50 turned out to be 190 µM and the “The ratio with PFD (multiple)” value is 39.47 multiple.

In the case of `Cc1cc(=O)n(-c2ccc(NCCN3CCOCC3)cc2Cl)c(C)n1` [Example 29, 3-(2-chloro-4-((2-morpholinoethyl)amino)phenyl)-2,6-dimethylpyrimidin-4(3H)-one], the IC50 was 1050 µM and the “The ratio with PFD (multiple)” value is 6.82 multiple.

In the case of `Cc1cc(=O)n(-c2ccc(-n3cccc3)c(F)c2)c(C)n1` [Example 18, 3-(3-fluoro-4-(1H-pyrrol-1-yl)phenyl)-2,6-dimethylpyrimidin-4(3H)-one], the IC50 came out at 560 µM and the “The ratio with PFD (multiple)” value was 8.10 multiple.

As to `C#Cc1cccc(OCc2nc(C)cc(=O)n2-c2ccc(N3CCOCC3)c(F)c2)c1` [Example 68], the IC50 was determined as 110 µM and the “The ratio with PFD (multiple)” value was 26.80 multiple.

For `Cc1cc(=O)n(-c2ccc(N(C)CCN3CCOCC3)c(F)c2)c(C)n1` [Example 28, 3-(3-fluoro-4-(methyl(2-morpholinoethyl)amino)phenyl)-2,6-dimethylpyrimidin-4(3H)-one], the IC50 worked out at 4990 µM and the “The ratio with PFD (multiple)” value is 1.60 multiple.

In the case of `Cc1cc(=O)n(-c2ccc(N3CCOCC3)c(F)c2)c(COc2cccnc2)n1` [Example 59, 3-(3-fluoro-4-morpholinophenyl)-6-methyl-2-((pyridin-3-yloxy)methyl)pyrimidin-4(3H)-one], the IC50 is 300 µM and the “The ratio with PFD (multiple)” value turned out to be 25.50 multiple.

For `CCCCCCN(CCCCCC)c1ccc(-n2c(C)nc(C)cc2=O)cc1C#N` [Example 42, 2-(dihexylamino)-5-(2,4-dimethyl-6-oxopyrimidin-1(6H)-yl)benzonitrile], the IC50 was 70 µM and the “The ratio with PFD (multiple)” value turned out to be 27.39 multiple.

In the case of `Cc1cc(=O)n(-c2ccc(N3CCCC3)c(F)c2)c(C)n1` [Example 21, 3-(3-fluoro-4-(pyrrolidin-1-yl)phenyl)-2,6-dimethylpyrimidin-4(3H)-one], the half-inhibitory concentration (IC50) is 1300 µM and the “The ratio with PFD (multiple)” value is given as 5.57 multiple.

Turning to `Cc1cc(=O)n(-c2ccc(NCCCCN3CCOCC3)c(F)c2)c(C)n1` [Example 31, 3-(3-fluoro-4-((4-morpholinobutyl)amino)phenyl)-2,6-dimethylpyrimidin-4(3H)-one], the IC50 stood at 2220 µM and the “The ratio with PFD (multiple)” value is on record as 3.50 multiple.

On to `CCCCCCNc1ccc(-n2c(C)nc(C)cc2=O)cc1F` [Example 33, 3-(3-fluoro-4-(hexylamino)phenyl)-2,6-dimethylpyrimidin-4(3H)-one], for which the IC50 turned out to be 300 µM and the “The ratio with PFD (multiple)” value amounted to 25.70 multiple.

In the case of `Cc1cc(=O)n(-c2cnc(-c3ccc(N4CCOCC4)cc3)s2)c(C)n1` [Example 15, 2,6-dimethyl-3-(2-(4-morpholinophenyl)thiazol-5-yl)pyrimidin-4(3H)-one], the IC50 worked out at 970 µM and the “The ratio with PFD (multiple)” value is recorded as 3.97 multiple.

With `Cc1cc(=O)n(-c2ccc(N(CC(C)C)CC(C)C)c(F)c2)c(C)n1` [Example 23, 3-(4-(diisobutylamino)-3-fluorophenyl)-2,6-dimethylpyrimidin-4(3H)-one], the IC50 was 110 µM and the “The ratio with PFD (multiple)” value came out at 30.31 multiple.

Regarding `Cc1cc(=O)n(-c2ccc(NCCc3cc4ccccc4[nH]3)c(F)c2)c(C)n1` [Example 38, 3-(4-((2-(1H-indol-2-yl)ethyl)amino)-3-fluorophenyl)-2,6-dimethylpyrimidin-4(3H)-one], the IC50 was 490 µM and the “The ratio with PFD (multiple)” value came to 15.80 multiple.

Regarding `Cc1cc(=O)n(-c2ccc(NCCCn3ccnc3)c(F)c2)c(C)n1` [Example 35, 3-(4-((3-(1H-imidazol-1-yl)propyl)amino)-3-fluorophenyl)-2,6-dimethylpyrimidin-4(3H)-one], the IC50 was 3010 µM and the “The ratio with PFD (multiple)” value is 2.60 multiple.

Regarding `Cc1cc(=O)n(-c2ccc(N3CCOCC3)c(Cl)c2)c(COc2ccc(Cl)c3ccccc23)n1` [Example 67], the IC50 was 140 µM and the “The ratio with PFD (multiple)” value is listed as 25.09 multiple.

With `Cc1cc(=O)n(-c2ccc(NCCN3CCCCC3)c(F)c2)c(C)n1` [Example 36, 3-(3-fluoro-4-((2-(piperidin-1-yl)ethyl)amino)phenyl)-2,6-dimethylpyrimidin-4(3H)-one], the IC50 amounted to 2700 µM and the “The ratio with PFD (multiple)” value is listed as 2.90 multiple.

Consider `Cc1cc(=O)n(-c2ccc(N3CCOCC3)c(F)c2)c(COc2ccc(F)c(F)c2)n1` [Example 49, 2-((3,4-difluorophenoxy)methyl)-3-(3-fluoro-4-morpholinophenyl)-6-methylpyrimidin-4(3H)-one], for which the IC50 is 70 µM and the “The ratio with PFD (multiple)” value is 35.52 multiple.

As to `Cc1cc(=O)n(-c2ccc(N3CCOCC3)c(C(F)(F)F)c2)c(C)n1` [Example 47, 2,6-dimethyl-3-(4-morpholino-3-(trifluoromethyl)phenyl)pyrimidin-4(3H)-one], the IC50 was 930 µM and the “The ratio with PFD (multiple)” value is 3.92 multiple.

Regarding `Cc1cc(=O)n(-c2ccc(N3CCOCC3)c(F)c2)c(COc2cccc(F)c2)n1` [Example 20, 3-(3-fluoro-4-morpholinophenyl)-2-((3-fluorophenoxy)methyl)-6-methylpyrimidin-4(3H)-one], the IC50 came to 40 µM and the “The ratio with PFD (multiple)” value worked out at 95.70 multiple.

As to `Cc1cc(=O)n(-c2ccc(N3CCS(=O)(=O)CC3)c(F)c2)c(C)n1` [Example 10, 3-(4-(1,1-dioxidothiomorpholino)-3-fluorophenyl)-2,6-dimethylpyrimidin-4(3H)-one], the IC50 was determined as 5550 µM and the “The ratio with PFD (multiple)” value is on record as 0.72 multiple.

As to `Cc1cc(=O)n(-c2ccc(OCCN3CCOCC3)c(F)c2)c(COc2cccc(F)c2)n1` [Example 56, 3-(3-fluoro-4-(2-morpholinoethoxy)phenyl)-2-((3-fluorophenoxy)methyl)-6-methylpyrimidin-4(3H)-one], the IC50 worked out at 100 µM and the “The ratio with PFD (multiple)” value is listed as 54.14 multiple.

On to `CCCCCCN(CCCCCC)c1ccc(-n2c(C)nc(C)cc2=O)cc1Cl` [Example 40, 3-(3-chloro-4-(dihexylamino)phenyl)-2,6-dimethylpyrimidin-4(3H)-one], for which the IC50 came out at 60 µM and the “The ratio with PFD (multiple)” value is given as 127.50 multiple.

Regarding `CCCCCCN(CCCCCC)c1ccc(-n2c(C)nc(C)cc2=O)cc1Br` [Example 41, 3-(3-bromo-4-(dihexylamino)phenyl)-2,6-dimethylpyrimidin-4(3H)-one], the IC50 turned out to be 60 µM and the “The ratio with PFD (multiple)” value is on record as 32.65 multiple.

For `Cc1cc(=O)n(-c2ccc(N3CCOCC3)c(F)c2)c(CCCOc2cccc(F)c2)n1` [Example 53, 3-(3-fluoro-4-morpholinophenyl)-2-(3-(3-fluorophenoxy)propyl)-6-methylpyrimidin-4(3H)-one], the half-maximal inhibitory concentration (IC50) is 500 µM and the “The ratio with PFD (multiple)” value turned out to be 15.49 multiple.

`CCCOCCN(CCOCCC)c1ccc(-n2c(C)nc(C)cc2=O)cc1F` [Example 32, 3-(4-(bis(2-propoxyethyl)amino)-3-fluorophenyl)-2,6-dimethylpyrimidin-4(3H)-one]: the IC50 was found to be 810 µM and the “The ratio with PFD (multiple)” value turned out to be 9.60 multiple.

On to `Cc1cc(=O)n(-c2ccc(NCCCn3cnnn3)c(F)c2)c(C)n1` [Example 37, 3-(4-((3-(1H-tetrazol-1-yl)propyl)amino)-3-fluorophenyl)-2,6-dimethylpyrimidin-4(3H)-one], for which the IC50 was 4310 µM and the “The ratio with PFD (multiple)” value came to 1.80 multiple.

Consider `Cc1cc(=O)n(-c2ccc(-n3cccn3)c(F)c2)c(C)n1` [Example 19, 3-(3-fluoro-4-(1H-pyrazol-1-yl)phenyl)-2,6-dimethylpyrimidin-4(3H)-one], for which the IC50 was determined as 1190 µM and the “The ratio with PFD (multiple)” value was 3.21 multiple.

As to `CCCCCCN(CCCCCC)c1ccc(-n2c(C)nc(C)cc2=O)cc1F` [Example 24, 3-(4-(di-n-hexylamino)-3-fluorophenyl)-2,6-dimethylpyrimidin-4(3H)-one], the half-inhibitory concentration (IC50) is 40 µM and the “The ratio with PFD (multiple)” value worked out at 60.63 multiple.

Take `Cc1cc(=O)n(-c2ccc(N3CCOCC3)c(F)c2)c(CCc2cccc(F)c2)n1` [Example 52, 3-(3-fluoro-4-morpholinophenyl)-2-(3-fluorophenethyl)-6-methylpyrimidin-4(3H)-one]: the IC50 amounted to 180 µM and the “The ratio with PFD (multiple)” value came out at 14.15 multiple.

Take `CCN(CC)c1ccc(-n2c(C)nc(C)cc2=O)cc1F` [Example 8, 3-(4-(diethylamino)-3-fluorophenyl)-2,6-dimethylpyrimidin-4(3H)-one]: the IC50 was 1660 µM and the “The ratio with PFD (multiple)” value is listed as 2.31 multiple.
